Our source for the EC50 values is patent publication US8580831B2, “Fluorinated aminotriazole derivatives” (Actelion Pharmaceuticals Ltd., priority 2009, dated 2013).

One may read the EC50 as the concentration needed to bring the measured effect to its halfway point.

This assay concerns the target T1, human ALX receptor (Homo sapiens, UniProt P25090).
T1 construct: expressed in transfected cells; host or cells: HEK293 (HEK293-hALXR-Ga16)
T1 sequence (P25090 1-351): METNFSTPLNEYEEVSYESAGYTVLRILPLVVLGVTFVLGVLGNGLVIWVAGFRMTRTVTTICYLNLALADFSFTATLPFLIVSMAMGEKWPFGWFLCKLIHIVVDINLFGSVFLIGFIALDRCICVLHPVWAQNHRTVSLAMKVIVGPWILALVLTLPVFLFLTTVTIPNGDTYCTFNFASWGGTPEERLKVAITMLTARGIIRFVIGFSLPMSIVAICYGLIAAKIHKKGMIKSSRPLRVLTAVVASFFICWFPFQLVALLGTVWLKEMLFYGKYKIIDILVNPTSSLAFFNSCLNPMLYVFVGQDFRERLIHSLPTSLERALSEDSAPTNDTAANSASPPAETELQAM
The assay is described as follows: Intracellular calcium measurements (FLIPR), ALX receptor agonistic activity. It is filed as cell-based. The settings on record: HEK293-hALXR-Ga16 cells, calcium flux, normalized to WKYMVm 10 nM; read-out: EC50 (agonistic activity with respect to the ALX receptor). The protocol: The ALX receptor agonistic activity of the compounds of formula (I) is determined in accordance with the following experimental method.
Intracellular Calcium Measurements:
Cells expressing recombinant human ALX receptor and the G-protein Ga16 (HEK293-hALXR-Ga16) were grown to 80% confluency in Growing Medium (GM). Cells were detached from culture dishes with a cell dissociation buffer (Invitrogen, 13151-014), and collected by centrifugation at 1′000 rpm at rt for 5 min in Assay Buffer (AB) (equal parts of Hank's BSS (Gibco, 14065-049) and DMEM without Phenol Red (Gibco, 11880-028)). After 60 min incubation at 37° C. under 5% CO2 in AB supplemented with 1 μM Fluo-4 (AM) (Invitrogen, F14202) and 20 mM HEPES (Gibco, 15630-056), the cells were washed and resuspended in AB. They were then seeded onto 384-well FLIPR assay plates (Greiner, 781091) at 50′000 cells in 70 μl per well and sedimented by centrifugation at 1′000 rpm for 1 min. Stock solutions of test compounds were made up at a concentration of 10 mM in DMSO, and serially diluted in AB to concentrations required for activation dose response curves. WKYMVm (Phoenix Peptides) was used as a reference agonist. A FLIPR Tetra instrument (Molecular Devices) was operated according to the manufacturer's standard instructions, adding 4 μl of test compound dissolved at 10 mM in DMSO and diluted prior to the experiment in assay buffer to obtain the desired final concentration. Changes in fluorescence were monitored before and after the addition of test compounds at lex=488 nm and lem=540 nm. Emission peak values above base level after compounds addition were exported after base line subtraction. Values were normalized to high-level control (WKYMVm compound, 10 nM final concentration) after subtraction of the base line value (AB addition).
A general note: Calcium assays in cells follow changes in intracellular calcium, usually with a dye or a luminescent sensor.
Consider `CC(F)(F)c1csc(Cn2ncc(NC(=O)c3ncoc3-c3ccccc3)n2)n1` [Example 2, 5-Phenyl-oxazole-4-carboxylic acid {2-[4-(1,1-difluoro-ethyl)-thiazol-2-ylmethyl]-2H-[1,2,3]triazol-4-yl}-amide], for which the EC50 came to 19 nM.
On to `CN(C)c1cc(-c2ocnc2C(=O)Nc2cnn(Cc3nc(C(C)(F)F)co3)n2)ccc1F` [Example 35, 5-(3-Dimethylamino-4-fluoro-phenyl)-oxazole-4-carboxylic acid {2-[4-(1,1-difluoro-ethyl)-oxazol-2-ylmethyl]-2H-[1,2,3]triazol-4-yl}-amide], for which the concentration giving a half-maximal response (EC50) is 4 nM.
The result for `COc1cccc(-c2ocnc2C(=O)Nc2cnn(Cc3ccc(C(C)(F)F)o3)n2)c1` [Example 21, 5-(3-Methoxy-phenyl)-oxazole-4-carboxylic acid {2-[5-(1,1-difluoro-ethyl)-furan-2-ylmethyl]-2H-[1,2,3]triazol-4-yl}-amide] reads 35 nM; that for `CC(F)(F)c1csc(Cn2ncc(NC(=O)c3ncoc3-c3cccc(F)c3)n2)n1` [Example 20, 5-(3-Fluoro-phenyl)-oxazole-4-carboxylic acid {2-[4-(1,1-difluoro-ethyl)-thiazol-2-ylmethyl]-2H-[1,2,3]triazol-4-yl}-amide], 55 nM; that for `Cc1nc(C(=O)Nc2cnn(Cc3nc(C(C)(F)F)cs3)n2)c(-c2cc(F)cc(F)c2)o1` [Example 5, 5-(3,5-Difluoro-phenyl)-2-methyl-oxazole-4-carboxylic acid {2-[4-(1,1-difluoro-ethyl)-thiazol-2-ylmethyl]-2H-[1,2,3]triazol-4-yl}-amide], 818 nM.
As for `Cc1cccc(-c2ocnc2C(=O)Nc2cnn(Cc3ccc(C(C)(F)F)o3)n2)c1` [Example 23, 5-m-Tolyl-oxazole-4-carboxylic acid {2-[5-(1,1-difluoro-ethyl)-furan-2-ylmethyl]-2H-[1,2,3]triazol-4-yl}-amide], the EC50 came out at 10 nM.
For the compound `CC(F)(F)c1csc(Cn2ncc(NC(=O)c3nc(C4CC4)oc3-c3ccccc3)n2)n1` [Example 9, 2-Cyclopropyl-5-phenyl-oxazole-4-carboxylic acid{2-[4-(1,1-difluoro-ethyl)-thiazol-2-ylmethyl]-2H-[1,2,3]triazol-4-yl}-amide], the EC50 was determined as 291 nM.
The figure for `Cc1cc(F)cc(-c2oc(C)nc2C(=O)Nc2cnn(Cc3nc(C(C)(F)F)cs3)n2)c1` [Example 13, 5-(3-Fluoro-5-methyl-phenyl)-2-methyl-oxazole-4-carboxylic acid{2-[4-(1,1-difluoro-ethyl)-thiazol-2-ylmethyl]-2H-[1,2,3]triazol-4-yl}-amide] is 1130 nM.
The figure for `Cc1nc(C(=O)Nc2cnn(Cc3nc(C(C)(F)F)cs3)n2)c(-c2ccccc2)o1` [Example 10, 2-Methyl-5-phenyl-oxazole-4-carboxylic acid{2-[4-(1,1-difluoro-ethyl)-thiazol-2-ylmethyl]-2H-[1,2,3]triazol-4-yl}-amide] is 6.3 nM.
The figure for `CCc1nc(C(=O)Nc2cnn(Cc3nc(C(C)(F)F)cs3)n2)c(-c2ccccc2)o1` [Example 30, 2-Ethyl-5-phenyl-oxazole-4-carboxylic acid {2-[4-(1,1-difluoro-ethyl)-thiazol-2-ylmethyl]-2H-[1,2,3]triazol-4-yl}-amide] is 11 nM; for `Cc1cc(F)cc(-c2oc(C)nc2C(=O)Nc2cnn(Cc3ccc(C(C)(F)F)o3)n2)c1` [Example 26, 5-(3-Fluoro-5-methyl-phenyl)-2-methyl-oxazole-4-carboxylic acid {2-[5-(1,1-difluoro-ethyl)-furan-2-ylmethyl]-2H-[1,2,3]triazol-4-yl}-amide] it is 742 nM.
Take `CN(C)c1cccc(-c2ocnc2C(=O)Nc2cnn(Cc3ccc(C(C)(F)F)o3)n2)c1` [Example 19, 5-(3-Dimethylamino-phenyl)-oxazole-4-carboxylic acid {2-[5-(1,1-difluoro-ethyl)-furan-2-ylmethyl]-2H-[1,2,3]triazol-4-yl}-amide]: the EC50 was 33 nM.
The result for `Cc1cccc(-c2ocnc2C(=O)Nc2cnn(Cc3nc(C(C)(F)F)cs3)n2)c1` [Example 17, 5-m-Tolyl-oxazole-4-carboxylic acid {2-[4-(1,1-difluoro-ethyl)-thiazol-2-ylmethyl]-2H-[1,2,3]triazol-4-yl}-amide] reads 11 nM.
For the compound `Cc1cccc(-c2oc(C)nc2C(=O)Nc2cnn(Cc3nc(C(C)(F)F)cs3)n2)c1` [Example 3, 2-Methyl-5-m-tolyl-oxazole-4-carboxylic acid{2-[4-(1,1-difluoro-ethyl)-thiazol-2-ylmethyl]-2H-[1,2,3]triazol-4-yl}-amide], the EC50 was 7.7 nM.
In the case of `Cc1nc(C(=O)Nc2cnn(Cc3nc(C(C)(F)F)co3)n2)c(-c2ccccc2)o1` [Example 33, 2-Methyl-5-phenyl-oxazole-4-carboxylic acid {2-[4-(1,1-difluoro-ethyl)-oxazol-2-ylmethyl]-2H-[1,2,3]triazol-4-yl}-amide], the EC50 was 2.9 nM.
In the case of `Cc1nc(C(=O)Nc2cnn(Cc3nc(C(C)(F)F)cs3)n2)c(-c2cccc(C(F)(F)F)c2)o1` [Example 6, 2-Methyl-5-(3-trifluoromethyl-phenyl)-oxazole-4-carboxylic acid {2-[4-(1,1-difluoro-ethyl)-thiazol-2-ylmethyl]-2H-[1,2,3]triazol-4-yl}-amide], the EC50 came to 14 nM.
The figure for `CC(F)(F)c1ccc(Cn2ncc(NC(=O)c3ncoc3-c3ccc(F)cc3)n2)o1` [Example 16, 5-(4-Fluoro-phenyl)-oxazole-4-carboxylic acid{2-[5-(1,1-difluoro-ethyl)-furan-2-ylmethyl]-2H-[1,2,3]triazol-4-yl}-amide] is 46 nM; for `Cc1cccc(-c2oc(C)nc2C(=O)Nc2cnn(Cc3ccc(C(C)(F)F)o3)n2)c1` [Example 1, 2-Methyl-5-m-tolyl-oxazole-4-carboxylic acid {2-[5-(1,1-difluoro-ethyl)-furan-2-ylmethyl]-2H-[1,2,3]triazol-4-yl}-amide] it is 8.1 nM; for `Cc1nc(C(=O)Nc2cnn(Cc3nc(C(C)(F)F)cs3)n2)c(-c2cccc(OC(F)(F)F)c2)o1` [Example 14, 2-Methyl-5-(3-trifluoromethoxy-phenyl)-oxazole-4-carboxylic acid{2-[4-(1,1-difluoro-ethyl)-thiazol-2-ylmethyl]-2H-[1,2,3]triazol-4-yl}-amide] it is 58 nM.
Take `Cc1nc(C(=O)Nc2cnn(Cc3ccc(C(C)(F)F)o3)n2)c(-c2ccccc2)o1` [Example 4, 2-Methyl-5-phenyl-oxazole-4-carboxylic acid{2-[5-(1,1-difluoro-ethyl)-furan-2-ylmethyl]-2H-[1,2,3]triazol-4-yl}-amide]: the EC50 was 0.9 nM.
`Cc1nc(C(=O)Nc2cnn(Cc3nc(C(C)(F)F)co3)n2)c(-c2ccc(F)c(N(C)C)c2)o1` [Example 36, 5-(3-Dimethylamino-4-fluoro-phenyl)-2-methyl-oxazole-4-carboxylic acid{2-[4-(1,1-difluoro-ethyl)-oxazol-2-ylmethyl]-2H-[1,2,3]triazol-4-yl}-amide]: the EC50 is 77 nM.
With `CN(C)c1cccc(-c2ocnc2C(=O)Nc2cnn(Cc3nc(C(C)(F)F)co3)n2)c1` [Example 34, 5-(3-Dimethylamino-phenyl)-oxazole-4-carboxylic acid {2-[4-(1,1-difluoro-ethyl)-oxazol-2-ylmethyl]-2H-[1,2,3]triazol-4-yl}-amide], the EC50 came out at 6.1 nM.
The figure for `CC(F)(F)c1csc(Cn2ncc(NC(=O)c3ncoc3-c3ccc(F)cc3)n2)n1` [Example 25, 5-(4-Fluoro-phenyl)-oxazole-4-carboxylic acid {2-[4-(1,1-difluoro-ethyl)-thiazol-2-ylmethyl]-2H-[1,2,3]triazol-4-yl}-amide] is 221 nM; for `Cc1cccc(-c2oc(C)nc2C(=O)Nc2cnn(Cc3coc(C(C)(F)F)n3)n2)c1` [Example 32, N-(2-((2-(1,1-Difluoroethyl)oxazol-4-yl)methyl)-2H-1,2,3-triazol-4-yl)-2-methyl-5-(m-tolyl)oxazole-4-carboxamide] it is 12 nM.
As to `COc1cccc(-c2ocnc2C(=O)Nc2cnn(Cc3nc(C(C)(F)F)cs3)n2)c1` [Example 8, 5-(3-Methoxy-phenyl)-oxazole-4-carboxylic acid{2-[4-(1,1-difluoro-ethyl)-thiazol-2-ylmethyl]-2H-[1,2,3]triazol-4-yl}-amide], the EC50 came to 69 nM.
